Reference: patent US7348453B2, “Labile linkage for compound delivery to a cell” (Mirus Bio Corporation, priority 2003, dated 2008)

Experiments:
[1] = tested on: Hepa mouse hepatoma cells; assay: DNA transfection, luciferase expression (pCIluc/DW921 complexes with crosslinker); assay type: cell-based; settings: pCIluc 10 μg/mL, DW921 100 μg/mL, 48 h, average of two wells
Experimental: To a solution of plasmid DNA pCIluc (10 μg/mL, 0.075 mM in phosphate, 2.6 μg/μL pCIluc; prepared according to Danko et al. 1997) in 0.5 mL of 150 mM NaCl and 5 mM TAPS pH 9 was added 100 μg/mL DW921. The complexes were then reacted with glutaraldehyde, periodate oxidized phenyl glucoside (another crosslinker containing a labile bond), or periodate oxidized salicylic galactoside at 1, 2, 4, 8, or 16 μg/mL. The complexes were then added (200 μL) to wells containing Hepa mouse hepatoma cells in Dulbecco's modified Eagle's Media containing 10% fetal bovine serum. The cells were allowed to incubate for 48 h. The cells were then harvested and assayed for luciferase expression as previously reported. The amount of transfection was reported in relative light units and is the average transfection for two separate wells of cells.

[2] = Measurement of acetal hydrolysis kinetics (absorbance vs time in buffered solutions); assay type: physicochemical; settings: formaldehyde-derived vs acetaldehyde-derived acetal
Source text: To illustrate the rate of cleavage of several example ortho carboxy phenol derived acetals, we synthesized the molecules 1-3 (shown in FIG. 2) and measured the rates of acetal hydrolysis for each at pH 5.2-7.3. • Acetal 1. R′, R=alkyl; and R1, R2, R3, R4=hydrogen • Acetal 2. R′, R=alkyl; R1, R4=hydrogen; R2=carboxyl (carbon-containing group); R3=hydroxyl (heteroatom) • Acetal 3. R′=alkyl; R, R2, R3, R4=hydrogen; and R1=carboxyl (carbon-containing group)
To determine the rate of acetal hydrolysis, compounds 1-3 were added to buffered solutions (pH 7-8 with 5 mM HEPES, or pH 5-7 with 5 mM acetate) at various pH values and the absorbance of the solution was measured as a function of time (λ=302 nm for 1 and 2 and 310 nm for 3). The rate constant was determined by determining the slope of the line derived from plotting ln[1−((A∞−At)/(A28−Ao))] as a function of time t, where A28 is absorbance after >3 hours of hydrolysis, At is the absorbance at time t, and Ao is the initial absorbance. The half-life of the hydrolysis equals ln[2] divided by the rate constant.

SMILES	Relative Light Units (luciferase expression) ([1]; 2 μg/mL dialdehyde crosslinker)	Relative Light Units (luciferase expression) ([1]; 4 μg/mL dialdehyde crosslinker)	Relative Light Units (luciferase expression) ([1]; 8 μg/mL dialdehyde crosslinker)	rate of acetal hydrolysis relative to acetals derived from alkyl-substituted aldehydes (acetals 1 and 2) [2]
O=CCCCC=O [glutaraldehyde]	620 Relative Light Units	1,400 Relative Light Units	590 Relative Light Units	–
CC(C)[C@@H]1CC[C@@H](C)C[C@H]1OCOc1c(C(=O)O)cccc1C(=O)O [Acetal 3]	–	–	–	hydrolyze more slowly
